How the values were obtained:
Format in all cases: in vivo
[1] = system: barnyardgrass (Echinochloa crus-galli); test: Test A pre-/postemergence plant response
In short: (§1)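 Seeds sown in loam–sand blend; test chemicals in non-phytotoxic solvent with surfactant applied preemergence as directed soil spray and, concurrently, postemergence to plants 2–10 cm tall at one- to two-leaf stage. Greenhouse ~10 days, then visual injury rating vs untreated controls on 0–100 scale (0 = no effect, 100 = complete control).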

[2] = system: velvetleaf (Abutilon theophrasti); test: Test A pre-/postemergence plant response
In short: as §1

[3] = system: giant foxtail (Setaria faberi); test: Test A pre-/postemergence plant response
In short: as §1

[4] = system: wheat (Triticum aestivum); test: Test A pre-/postemergence plant response
In short: as §1

[5] = system: morningglory (Ipomoea coccinea); test: Test A pre-/postemergence plant response
In short: as §1

[6] = system: large crabgrass (Digitaria sanguinalis); test: Test A pre-/postemergence plant response
In short: as §1

corn (Zea mays) = test: Test A pre-/postemergence plant response
In short: as §1

[7] = system: pigweed (Amaranthus retroflexus); test: Test A pre-/postemergence plant response
In short: as §1

[8] = system: barnyardgrass (Echinochloa crus-galli); test: Test B flooded paddy test plant response
In short: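 Paddy-water application to 2-leaf plants in pots held under 3 cm of flooding; response is a 0–100 visual control rating against controls after 13 to 15 days, and a dash marks a missing result.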

[9] = system: eastern black (E.B.) nightshade (Solanum ptycanthum); test: Test B pre-/postemergence plant response; details: Preemergence; for Nightshade, E. B. plant response rating: 8 g ai/ha
In short: (§2)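 Seeds were sown and sprayed preemergence, while plants at 2 to 18 cm (1- to 4-leaf stage) got postemergence sprays. Compounds were formulated in a non-phytotoxic solvent mixture with surfactant. After 13 to 15 days in a greenhouse, injury was rated visually against untreated controls, 0 (no effect) to 100 (complete control).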

[10] = system: green foxtail (Setaria viridis); test: Test B pre-/postemergence plant response; details: for Foxtail, Green plant response rating: 8 g ai/ha
In short: as §2

[11] = Postemergence, 31 g ai/ha, 0 to 100 scale (0 no effect, 100 complete control)
[12] = Postemergence, 125 g ai/ha, 0 to 100 scale, 0 no effect, 100 complete control
[13] = Preemergence, 31 g ai/ha, 0 to 100 scale, 0 is no effect, 100 is complete control
[14] = Preemergence, 125 g ai/ha, 0 to 100 scale (0 no effect, 100 complete control)
[15] = Flood (flooded paddy test), 62 g ai/ha, scale 0 to 100, 0 no effect, 100 complete control
[16] = Flood (flooded paddy test), 125 g ai/ha, scale 0 to 100, 0 no effect, 100 complete control
[17] = Flood (flooded paddy test), 250 g ai/ha, scale 0 to 100, 0 no effect, 100 complete control
[18] = Flood, 31 g ai/ha, scale 0 to 100
[19] = 16 g ai/ha, scale 0 to 100 (0 no effect, 100 complete control)
[20] = 31 g ai/ha, scale 0 to 100 (0 no effect, 100 complete control)
[21] = Postemergence, 16 g ai/ha, scale 0 to 100
[22] = Postemergence, 62 g ai/ha, scale 0 to 100, 0 no effect, 100 complete control
[23] = Preemergence, 16 g ai/ha, scale 0 to 100 (0 no effect, 100 complete control)
[24] = Preemergence, 31 g ai/ha, 0 to 100 scale, 0 no effect, 100 complete control
[25] = Preemergence, 62 g ai/ha, scale 0 to 100

CCc1cc(-c2ccc(Cl)cc2)nn1-c1c(OC(=O)OC(C)C)cnn(C)c1=O [Compound 41]
80: Plant response rating, Barnyardgrass [1, 11] | Plant response rating, Wheat [4, 14] | Plant response rating, Crabgrass, Large [6, 13] | Plant response rating, Barnyardgrass [8, 16]
0: Plant response rating, Velvetleaf [2, 11] | Plant response rating, Velvetleaf [2, 12] | Plant response rating, Velvetleaf [2, 13] | Plant response rating, Velvetleaf [2, 14] | Plant response rating, Morningglory [5, 11] | Plant response rating, Morningglory [5, 12] | Plant response rating, Morningglory [5, 13] | Plant response rating, Morningglory [5, 14] | Plant response rating, Pigweed [7, 11] | Plant response rating, Pigweed [7, 12] | Plant response rating, Pigweed [7, 13] | Plant response rating, Pigweed [7, 14] | Plant response rating, Nightshade, E. B. [9, 19] | Plant response rating, Nightshade, E. B. [9, 20] | Plant response rating, Nightshade, E. B. ([9]; 62 g ai/ha, scale 0 to 100) | Nightshade, E. B. plant response rating ([9]; scale 0 to 100)
75: Plant response rating, Barnyardgrass [8, 15]
95: Plant response rating, Barnyardgrass [8, 17]
100: Plant response rating, Barnyardgrass [1, 12] | Plant response rating, Barnyardgrass [1, 13] | Plant response rating, Barnyardgrass [1, 14] | Plant response rating, Foxtail, Giant [3, 14] | Plant response rating, Crabgrass, Large [6, 14] | Plant response rating, Foxtail, Green [10, 21] | Plant response rating, Foxtail, Green ([10]; Postemergence, 31 g ai/ha, scale 0 to 100, 0 no effect, 100 complete control) | Plant response rating, Foxtail, Green [10, 22] | Plant response rating, Foxtail, Green [10, 23] | Plant response rating, Foxtail, Green [10, 24] | Plant response rating, Foxtail, Green [10, 25] | Foxtail, Green plant response rating ([10]; Preemergence, scale 0 to 100)
60: Plant response rating, Wheat [4, 11] | Plant response rating, Corn (corn (Zea mays); [11]) | Plant response rating, Barnyardgrass [8, 18]
85: Foxtail, Green plant response rating ([10]; postemergence, 0-100 scale)
50: Plant response rating, Wheat [4, 13]
30: Plant response rating, Corn (corn (Zea mays); [13])
70: Plant response rating, Foxtail, Giant [3, 11] | Plant response rating, Wheat [4, 12]
90: Plant response rating, Foxtail, Giant [3, 12] | Plant response rating, Foxtail, Giant [3, 13] | Plant response rating, Crabgrass, Large [6, 12] | Plant response rating, Corn (corn (Zea mays); [12]) | Plant response rating, Corn (corn (Zea mays); [14])
20: Plant response rating, Crabgrass, Large [6, 11]

Cc1cc(-c2ccc(Cl)cc2)nn1-c1c(OC(=O)c2ccccc2)cnn(C)c1=O [Compound 48]
98: Plant response rating, Foxtail, Green [10, 21]
0: Plant response rating, Velvetleaf [2, 13] | Plant response rating, Velvetleaf [2, 14] | Plant response rating, Wheat [4, 11] | Plant response rating, Morningglory [5, 11] | Plant response rating, Morningglory [5, 12] | Plant response rating, Morningglory [5, 13] | Plant response rating, Morningglory [5, 14] | Plant response rating, Pigweed [7, 13] | Plant response rating, Pigweed [7, 14] | Plant response rating, Barnyardgrass [8, 15] | Plant response rating, Barnyardgrass [8, 16] | Plant response rating, Barnyardgrass [8, 18] | Plant response rating, Nightshade, E. B. [9, 19] | Plant response rating, Nightshade, E. B. [9, 20] | Nightshade, E. B. plant response rating ([9]; scale 0 to 100)
60: Plant response rating, Barnyardgrass [1, 13] | Plant response rating, Wheat [4, 12] | Plant response rating, Crabgrass, Large [6, 13] | Plant response rating, Corn (corn (Zea mays); [12])
70: Plant response rating, Velvetleaf [2, 12] | Foxtail, Green plant response rating ([10]; postemergence, 0-100 scale)
100: Plant response rating, Barnyardgrass [1, 14] | Plant response rating, Foxtail, Giant [3, 14] | Plant response rating, Crabgrass, Large [6, 14] | Plant response rating, Foxtail, Green ([10]; Postemergence, 31 g ai/ha, scale 0 to 100) | Plant response rating, Foxtail, Green [10, 22] | Plant response rating, Foxtail, Green [10, 24] | Plant response rating, Foxtail, Green [10, 25]
90: Plant response rating, Barnyardgrass [1, 12] | Plant response rating, Foxtail, Giant [3, 13]
80: Plant response rating, Foxtail, Giant [3, 12] | Plant response rating, Wheat [4, 14] | Plant response rating, Crabgrass, Large [6, 12] | Plant response rating, Corn (corn (Zea mays); [14]) | Plant response rating, Foxtail, Green [10, 23]
30: Plant response rating, Foxtail, Giant [3, 11] | Plant response rating, Wheat [4, 13] | Plant response rating, Pigweed [7, 12] | Plant response rating, Barnyardgrass [8, 17] | Foxtail, Green plant response rating ([10]; Preemergence, scale 0 to 100)
20: Plant response rating, Barnyardgrass [1, 11] | Plant response rating, Velvetleaf [2, 11] | Plant response rating, Crabgrass, Large [6, 11] | Plant response rating, Corn (corn (Zea mays); [11]) | Plant response rating, Pigweed [7, 11] | Plant response rating, Nightshade, E. B. ([9]; 62 g ai/ha, scale 0 to 100)

— US20100267561A1, “HERBICIDAL PYRIDAZINONE DERIVATIVES” (priority 2007, published 2010)
